Here are results for one compound from patent publication US7439240B2, “Purine-or pyrrolol[2,3-d]pyrimidine-2-carbonitiles for treating diseases associated with cysteine protease activity” (AstraZeneca AB, priority 2002, dated 2008).

As to `CCn1ccc2c(Nc3ccc(Cl)cc3)nc(C#N)nc21` [Example 27, 4-[(4-Chlorophenyl)amino]-7-ethyl-7H-pyrrolo[2,3-d]pyrimidine-2-carbonitrile], the melting point (in general, the temperature of the solid-liquid transition) is 183 °C.
